Consider 15 molecules from patent publication US9120749B2, “Quinoline derivatives and MELK inhibitors containing the same” (ONCOTHERAPY SCIENCE, INC., priority 2010, dated 2015).

Structures can show the parent of a compound that is named as a salt. Where two headings read alike, the source gives them in different places.

In one test the target is MELK (Homo sapiens, UniProt Q14680). Briefly: Kinase assay: MELK activity, phosphorylation of FITC-labeled histone H3 peptide measured by IMAP fluorescence polarization. The test is classed as biochemical. The settings on record: read-out: IC50 (μM) (kinase assay). The procedure, abridged:
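Kinase reactions ran with or without test compound (final DMSO 1%) on a fluorescein-tagged H3 peptide. Progressive binding solution was added to terminate them. After a half-hour room-temperature incubation, polarization was measured.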
On the technique in general: In fluorescence polarisation assays a small probe gives low polarisation when free and higher when bound to something large.

The test system of a further test is T47D cells. Briefly: Cell-based assay: anti-proliferative activity, Cell Counting Kit-8, 72 hours (T47D). The procedure, abridged: (§1)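 First, lysates underwent western blotting with anti-MELK antibody to establish expression. Next, cells went into 96-well plates. Then candidate inhibitors were added. Finally, viability was determined by CCK-8 at 72 h and IC50 computed.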
In general terms: Tetrazolium assays rely on reduction of a dye to a coloured formazan, in cell work by metabolically active cells.

The subject of the next test is A549 cells. The experiment in a line: Cell-based assay: anti-proliferative activity, Cell Counting Kit-8, 72 hours (A549). Particulars: 72 hours. The procedure, abridged: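 A549 cells seeded in 96-well plates and exposed to candidate inhibitors for 72 hours. Growth measured with Cell Counting Kit-8; IC50 values calculated from the dose response.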
In another test the test system is HT-1197 cells. The experiment in a line: Cell-based assay: anti-proliferative activity, Cell Counting Kit-8, 72 hours (HT-1197, negative control without MELK expression). The settings on record: 72 hours. The procedure, abridged: as §1
The next test deals with 22Rv1. Briefly: Cell-based assay: anti-proliferative activity, Cell Counting Kit-8, 72 hours (22Rv1). The settings on record: Homo sapiens; 22Rv1 cells. As for the experimental part: Active candidate inhibitors against MELK were evaluated for their target-specific cytotoxicity using T47D, A549, BT-549, and HT-1197 cells was used for negative control. 100 micro-L of cell suspension was seeded onto 96-well microtiter plate (ViewPlate-96FTC, PerkinElmer). The initial cell concentration of T47D, A549, BT-549, and HT-1197 were 3,000 cells/well, 2,000 cells/well and 2,500 cells/well, respectively. Cellular growth was determined using Cell Counting Kit-8 (DOJINDO) at 72 hours after the exposure of the candidate inhibitors. […] Accurate IC50 values were calculated as described previously.

A further test concerns DU4475. Briefly: Cell-based assay: anti-proliferative activity, Cell Counting Kit-8, 72 hours (DU4475).
The test system of a further test is 22Rv1 cells. Briefly: Cell-based assay: anti-proliferative activity, Cell Counting Kit-8, 72 hours (22Rv1). Particulars: Homo sapiens.
The subject of the next test is DU4475 cells. The experiment in a line: Cell-based assay: anti-proliferative activity, Cell Counting Kit-8, 72 hours (DU4475). The settings on record: Homo sapiens, DU-4475.
Where [1] appears, read: 50 micro-M ATP, FITC-labeled histone H3 peptide substrate, IMAP fluorescence polarization.
The mark [2] stands for this setting: Homo sapiens, HT1197, 72 h, HT1197 cells (negative control, no MELK expression).
The mark [3] stands for this setting: Homo sapiens, DU-4475, DU4475 cells.
[4] abbreviates: HT1197 cells (negative control, no MELK expression).
Where [5] appears, read: HT1197 cells (negative control, no MELK expression), hydrochloride.
Where [6] appears, read: MELK kinase assay, IMAP fluorescence polarization, 50 micro-M ATP.
Setting [7] is: Homo sapiens, HT1197, 72 h, HT1197 cells (negative control).

Chain of MELK (Q14680 whole entry, looked up): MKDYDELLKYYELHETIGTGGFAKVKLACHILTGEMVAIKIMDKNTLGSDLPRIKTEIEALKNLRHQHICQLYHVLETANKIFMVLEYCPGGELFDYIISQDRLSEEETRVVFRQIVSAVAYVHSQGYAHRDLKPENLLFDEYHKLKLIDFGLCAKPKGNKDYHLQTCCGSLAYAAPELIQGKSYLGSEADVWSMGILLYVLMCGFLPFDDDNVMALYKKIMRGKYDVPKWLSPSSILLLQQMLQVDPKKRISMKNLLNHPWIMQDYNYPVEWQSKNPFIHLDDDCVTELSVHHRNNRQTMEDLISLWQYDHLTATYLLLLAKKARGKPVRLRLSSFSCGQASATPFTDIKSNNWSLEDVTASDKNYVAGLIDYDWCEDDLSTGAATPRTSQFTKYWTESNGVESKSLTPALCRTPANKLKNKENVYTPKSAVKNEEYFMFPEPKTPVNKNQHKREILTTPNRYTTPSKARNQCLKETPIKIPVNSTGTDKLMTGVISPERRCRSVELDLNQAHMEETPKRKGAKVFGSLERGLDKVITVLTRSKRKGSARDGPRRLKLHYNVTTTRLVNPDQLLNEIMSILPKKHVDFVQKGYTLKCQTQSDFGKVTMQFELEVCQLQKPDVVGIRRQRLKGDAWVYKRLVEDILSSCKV

As to `O=C(c1cnc2ccc(-c3cc(F)c(O)c(Cl)c3)cc2c1Nc1ccc(CN2CCCC2)cc1)C1CC1` [Example 396, {6-(3-chloro-5-fluoro-4-hydroxyphenyl)-4-[4-(pyrrolidin-1-ylmethyl)phenylamino]quinolin-3-yl}(cyclopropyl)methanone], the IC50 – broadly, the concentration that gives 50% inhibition – amounted to 0.0088 µM at MELK (setting [1]); 0.21 µM in the test with T47D cells (Homo sapiens, T47D, 72 h); 0.087 µM in the test on A549 cells (Homo sapiens, A549, 72 h); 1.6 µM with HT-1197 cells (setting [2]); 0.38 µM in the test with 22Rv1; 0.084 µM with DU4475 (setting [3]).

For `CN(C)Cc1ccc(Nc2c(S(C)(=O)=O)cnc3ccc(-c4cc(Cl)c(O)c(Cl)c4)cc23)cc1` [Example 401, 2,6-dichloro-4-(4-(4-((dimethylamino)methyl)phenylamino)-3-(methylsulfonyl)quinolin-6-yl)phenol hydrochloride], the IC50 at MELK (50 micro-M ATP, FITC-labeled histone H3 peptide substrate, IMAP fluorescence polarization, hydrochloride) was 0.0055 µM; in the test with T47D cells (72 hours, hydrochloride), 0.19 µM; with A549 cells (hydrochloride), 0.44 µM; in the test with HT-1197 cells (setting [2]), 2.2 µM; with 22Rv1 it was 0.52 µM; in the test on DU4475 (DU4475 cells, hydrochloride) it was 0.11 µM.

On to `CC(=O)c1cnc2ccc(-c3cc(Cl)c(O)c(Cl)c3)cc2c1Nc1ccc(CN2CCCC2)cc1` [Example 416, 1-(6-(3,5-dichloro-4-hydroxyphenyl)-4-(4-(pyrrolidin-1-ylmethyl)phenylamino)quinolin-3-yl)ethanone hydrobromide], for which the concentration for half-maximal inhibition (IC50) on MELK (50 micro-M ATP, FITC-labeled histone H3 peptide substrate, IMAP fluorescence polarization, hydrobromide) amounted to 0.0032 µM; in the test with T47D cells (72 hours, hydrobromide), 0.066 µM; in the test with A549 cells (hydrobromide), 0.11 µM; with HT-1197 cells (HT1197 cells (negative control, no MELK expression), hydrobromide), 6.1 µM; in the test with 22Rv1, 0.19 µM; in the test on DU4475 (DU4475 cells, hydrobromide), 0.053 µM.

Consider `CN(C)C[C@H]1CC[C@H](Nc2c(S(C)(=O)=O)cnc3ccc(-c4cc(Cl)c(O)c(Cl)c4)cc23)CC1` [Example 421], for which the IC50 is 0.0017 µM on MELK (setting [1]); 0.47 µM in the test with T47D cells (72 hours); 0.68 µM with A549 cells; 2.1 µM in the test on HT-1197 cells (setting [4]); 0.64 µM in the test with 22Rv1; 0.086 µM with DU4475 (DU4475 cells).

On to `O=C(c1cnc2ccc(-c3cc(F)c(O)c(Cl)c3)cc2c1Nc1ccc(N2CCNCC2)nc1)C1CC1` [Example 425, (6-(3-chloro-5-fluoro-4-hydroxyphenyl)-4-(6-(piperazin-1-yl)pyridin-3-ylamino)quinolin-3-yl)(cyclopropyl)methanone], for which the IC50 stood at 0.0027 µM at MELK (setting [1]); 0.042 µM with T47D cells (Homo sapiens, T47D, 72 h); 0.16 µM in the test with A549 cells (Homo sapiens, A549, 72 h); 1.4 µM in the test on HT-1197 cells (setting [2]); 0.082 µM with 22Rv1; 0.044 µM with DU4475 (setting [3]).

In the case of `CC(=O)c1cnc2ccc(-c3cc(F)c(O)c(Cl)c3)cc2c1Nc1ccc(N2CCN(C)CC2)nc1` [Example 488, 1-(6-(3-chloro-5-fluoro-4-hydroxyphenyl)-4-(6-(4-methylpiperazin-1-yl)pyridin-3-ylamino)quinolin-3-yl)ethanone], the IC50 at MELK was 0.0041 µM; with T47D cells (72 hours), 0.084 µM; with A549 cells, 0.2 µM; in the test with HT-1197 cells (setting [4]) it was 2.1 µM; in the test on 22Rv1, 0.38 µM; in the test with DU4475 (DU4475 cells), 0.14 µM.

In the case of `COc1cc(-c2ccc3ncc(C(=O)C4CC4)c(N[C@H]4CC[C@H](CN)CC4)c3c2)cc(Cl)c1O` [Example 494, (4-(4-(aminomethyl)cyclohexylamino)-6-(3-chloro-4-hydroxy-5-methoxyphenyl)quinolin-3-yl)(cyclopropyl)methanone hydrochloride], the IC50 on MELK (hydrochloride) stood at 0.0016 µM; in the test with T47D cells (72 hours, hydrochloride), 0.081 µM; in the test on A549 cells (hydrochloride) it was 0.085 µM; in the test with HT-1197 cells (setting [5]) it was 0.48 µM; in the test with 22Rv1 it was 0.13 µM; in the test on DU4475 (DU4475 cells, hydrochloride) it was 0.055 µM.

As for `NCc1ccc(Nc2c(C(=O)C3CC3)cnc3ccc(-c4cc(F)c(O)c(Cl)c4)cc23)cc1` [Example 505, (4-(4-(aminomethyl)phenylamino)-6-(3-chloro-5-fluoro-4-hydroxyphenyl)quinolin-3-yl)(cyclopropyl)methanone hydrochloride], the concentration for half-maximal inhibition (IC50) on MELK (hydrochloride) came out at 0.0027 µM; with T47D cells (72 hours, hydrochloride), 0.063 µM; with A549 cells (hydrochloride) it was 0.067 µM; in the test with HT-1197 cells (setting [5]), 0.4 µM; in the test with 22Rv1 it was 0.088 µM; in the test on DU4475 (DU4475 cells, hydrochloride), 0.026 µM.

As for `COc1cc(-c2cc3c(N[C@H]4CC[C@H](CN5CCCC5)CC4)c(C(C)=O)cnc3cc2F)cc(Cl)c1O` [Example 926, 1-(6-(3-chloro-4-hydroxy-5-methoxy-phenyl)-7-fluoro-4-((1R,4R)-4-(pyrrolidin-1-ylmethyl)cyclohexyl)amino)quinolin-3-yl)ethanone hydrochloride], the IC50 at MELK (setting [6]) worked out at 0.0079 µM; with T47D cells (Homo sapiens, T47D, 72 h) it was 2.7 µM; with A549 cells (Homo sapiens, A549, 72 h), 0.61 µM; with HT-1197 cells (setting [7]) it was 5 µM; with 22Rv1 cells, 0.69 µM; in the test with DU4475 cells, 0.55 µM.

Regarding `CC(=O)c1cnc2ccc(-c3ccc4cc(O)ccc4c3)cc2c1N[C@H]1CC[C@H](CN(C)C)CC1` [Example 929, 1-(4-((1R,4R)-4-((dimethylamino)methyl)cyclohexyl)amino)-6-(6-hydroxynaphthalen-2-yl)quinolin-3-yl)ethanone hydrochloride], the 50% inhibitory concentration (IC50) stood at 0.064 µM at MELK (setting [6]); 3.3 µM in the test on T47D cells (Homo sapiens, T47D, 72 h); 0.87 µM in the test with A549 cells (Homo sapiens, A549, 72 h); 3.9 µM in the test on HT-1197 cells (setting [7]); 0.71 µM with 22Rv1 cells; 2.8 µM in the test on DU4475 cells.

Consider `CN1CCC(n2cc(Nc3c(C(=O)C(C)(C)C)cnc4ccc(-c5cc(F)c(O)c(Cl)c5)cc34)cn2)CC1` [Example 930, 1-(6-(3-chloro-5-fluoro-4-hydroxy-phenyl)-4-((1-(1-methylpiperidin-4-yl)-1H-pyrazol-4-yl)amino)quinolin-3-yl)-2,2-dimethylpropan-1-one hydrochloride], for which the IC50 on MELK (setting [6]) came to 0.017 µM; with T47D cells (Homo sapiens, T47D, 72 h), 1.7 µM; in the test with A549 cells (Homo sapiens, A549, 72 h), 4.4 µM; in the test with HT-1197 cells (setting [7]), 14 µM; with 22Rv1 cells, 2.5 µM; in the test with DU4475 cells, 1.3 µM.

In the case of `CN1CCC(n2cc(Nc3c(C(=O)C(C)(C)C)cnc4ccc(-c5cc(Cl)c(O)c(Cl)c5)cc34)cn2)CC1` [Example 931, 1-(6-(3,5-dichloro-4-hydroxyphenyl)-4-((1-(1-methylpiperidin-4-yl)-1H-pyrazol-4-yl)amino)quinolin-3-yl)-2,2-dimethylpropan-1-one hydrochloride], the IC50 was determined as 0.0062 µM at MELK (setting [6]); 1.4 µM with T47D cells (Homo sapiens, T47D, 72 h); 1.8 µM in the test with A549 cells (Homo sapiens, A549, 72 h); 100 µM in the test on HT-1197 cells (setting [7]); 2.1 µM in the test with 22Rv1 cells; 1.5 µM with DU4475 cells.

For `CC(N)C(=O)N[C@H]1CC[C@H](Nc2c(C(=O)C(C)(C)C)cnc3ccc(-c4cc(F)c(O)c(Cl)c4)cc23)CC1` (stereo partly drawn) [Example 932, 2-amino-N-(1R,4R)-4-((6-(3-chloro-5-fluoro-4-hydroxyphenyl)-3-pivaloyl-quinolin-4-yl)amino)cyclohexyl) propanamide hydrochloride], the IC50 was found to be 0.047 µM at MELK (setting [6]); 0.71 µM with T47D cells (Homo sapiens, T47D, 72 h); 4.7 µM in the test on A549 cells (Homo sapiens, A549, 72 h); 7.6 µM in the test on HT-1197 cells (setting [7]); 1.6 µM in the test with 22Rv1 cells; 1 µM in the test on DU4475 cells.

Consider `CCC(=O)c1cnc2ccc(-c3cc(Cl)c(O)c(Cl)c3)cc2c1Nc1ccc(N2CCC[C@H](N)C2)nc1` [Example 934, (S)-1-(4-(6-(3-aminopiperidin-1-yl)pyridin-3-ylamino)-6-(3,5-dichloro-4-hydroxyphenyl)quinolin-3-yl)propan-1-one], for which the IC50 at MELK (setting [6]) was 0.0012 µM; in the test on T47D cells (Homo sapiens, T47D, 72 h), 0.014 µM; in the test with A549 cells (Homo sapiens, A549, 72 h) it was 0.034 µM; in the test with HT-1197 cells (setting [7]), 0.6 µM; with 22Rv1 cells, 0.02 µM; in the test with DU4475 cells, 0.016 µM.

On to `CC(=O)c1cnc2ccc(-c3ccc(O)cc3)cc2c1N[C@H]1CC[C@H](CN(C)C)CC1` [Example 935, 1-(4-(1R,4R)-4-((dimethylamino)methyl)cyclohexylamino)-6-(4-hydroxyphenyl)quinolin-3-yl) ethanone dihydrochloride], for which the half-maximal inhibitory concentration (IC50) came to 0.08 µM on MELK (setting [6]); 1.6 µM in the test on T47D cells (Homo sapiens, T47D, 72 h); 0.86 µM with A549 cells (Homo sapiens, A549, 72 h); 4.3 µM in the test with HT-1197 cells (setting [7]); 0.53 µM in the test on 22Rv1 cells; 1.5 µM in the test with DU4475 cells.
